# Experimental data: patent publication US8604049B2, “4-dimethylamino-phenyl-substituted naphthyridines, and use thereof as medicaments” (Boehringer Ingelheim International GmbH, priority 2008, dated 2013)
# Target: T1, Recombinant human Syk (GST-Syk kinase fusion protein) (Homo sapiens, UniProt P43405)
# T1 construct: made in house
# Assay: Syk Kinase Test (Kinase Glo luminescence)
# Type: biochemical
# Conditions: 1 μM test substance; 4 nM GST-Syk; read-out: SYK inh % at 1 μM
# Method: The catalytic activity of the GST-Syk kinase fusion protein was determined using the Kinase Glo® Luminescence Kinase test of Messrs Promega. In this homogeneous test the amount of ATP remaining after the kinase reaction has been carried out is quantified by a luciferin-luciferase reaction using luminescence. The luminescence signal obtained correlates with the amount of ATP still present and thus correlates inversely with the activity of the protein kinase.
# GST-Syk was diluted to 6.0 nM in the test buffer and 10 μl of this dilution were used in the kinase test (final concentration of Syk=4 nM in a total volume of 15 μl).
# Positive controls are the reaction mixtures that contain no test substance; negative controls are reaction mixtures that contain no kinase.
# After 60 minutes, 10 μl Kinase-Glo® solution (Promega, Cat. #V6712) (heated to ambient temperature) are added to each well and incubation is continued for a further 15 minutes at ambient temperature.
# Data Evaluation and Calculation:
# The output file of the “MicroBeta TRILUX” is a text file that contains the well number and measurements obtained. […] Then from this the % inherent value for the measurement of each substance concentration was calculated using an “MS-Excel—VB macro”. […] The IC50 values were calculated from the % inhibition values using “GraphPadPrism” software (Version 5) (GraphPad Software Inc.).
row,inhibition at 1 µM,SMILES
1,85.2%,Cc1cc(-c2cc3ncccc3c(O[C@H]3CC[C@@H](O)CC3)n2)ccc1N(C)C [Example 1]
2,71.9%,Cc1cc(-c2cc3ncccc3c(O[C@H]3CC[C@H](O)CC3)n2)ccc1N(C)C [Example 2]
3,85.2%,Cc1cc(-c2cc3ncccc3c(NCCc3cn[nH]c3)n2)ccc1N(C)C [Example 6]

# Same assay, conditions: read-out: SYK inh % at 1 μM
row,SMILES,inhibition at 1 µM
1,"Cc1cc(-c2cc3ncccc3c(N3CC[C@@H](CN)C3)n2)ccc1N(C)C [Example 3, 5-(aminomethylpyrrolidin-1-yl)-7-(4-dimethylamino-3-methylphenyl)-[1,6]naphthyridine]",88.2%
2,"Cc1cc(-c2cc3ncccc3c(-n3cc(CCO)cn3)n2)ccc1N(C)C [Example 12, 5-(4-hydroxyethyl-pyrazolyl)-7-(4-dimetyhlamino-3-methylphenyl)-[1,6]naphthyridine]",105%
3,"COc1nc(-c2ccc(N(C)C)c(C)c2)cc2ncccc12 [Example 17, 5-methoxy-7-(4-dimethylamino-3-methylphenyl)-[1,6]naphthyridine]",73.2%
4,"Cc1cc(-c2cc3ncccc3c(NC3CC3)n2)ccc1N(C)C [Example 20, 5-(cyclopropylamino)-7-(4-dimethylamino-3-methylphenyl)-[1,6]naphthyridine]",90.2%
